# Measurements published in patent US8822430B2 (Gilead Sciences, Inc., priority 2009, dated 2014).
# Tested on: HCV 1b RLuc cells (dicistronic genotype 1b Con1 replicon)
# Assay: Renilla luciferase (RLuc)-based HCV replicon reporter assay
# Assay type: cell-based, HCV genotype 1b
# Conditions: HCV 1b RLuc replicon, 72 hours; read-out: Activity (antiviral potency [EC50])
# In short: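 HCV 1b RLuc cells carrying a dicistronic genotype 1b Con1 replicon were treated with serially diluted compounds from 10 mM DMSO stocks. After 72 h, cells were lysed and Renilla luciferase activity measured. EC50 was obtained by non-linear regression.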
row,Compound,EC50
1,"COC(=O)N[C@H](C(=O)N1CCC[C@H]1c1ncc(-c2ccc(-c3ccc(-c4cnc([C@@H]5CSC(c6ccncc6)N5C(=O)OCc5ccccc5)[nH]4)cc3)cc2)[nH]1)C(C)C (single isomer, unassigned) [drawing 1301]",0.0765 nM

# Same assay, conditions: Hepatitis C virus, 72 h, HCV 1b RLuc replicon, 72 hours; read-out: Activity (antiviral potency [EC50])
row,Compound,EC50
1,COC(=O)N[C@@H](CCC#N)C(=O)N1[C@@H]2CC[C@@H](C2)[C@H]1c1nc2ccc(-c3ccc4c(c3)C(F)(F)c3cc(-c5cnc([C@@H]6CC7(CC7)CN6C(=O)[C@@H](NC(=O)OC)C(C)C)[nH]5)ccc3-4)cc2[nH]1,0.006 nM
2,COC(=O)N[C@H](C(=O)N1C[C@@H](C#N)C[C@H]1c1ncc(-c2ccc3cc(-c4ccc(-c5cnc([C@@H]6[C@H]7CC[C@H](C7)N6C(=O)[C@@H](NC(=O)OC)C(C)C)[nH]5)cc4)ccc3c2)[nH]1)C(C)C,0.0097 nM
3,COC(=O)N[C@H](C(=O)N1CCC[C@H]1c1ncc(-c2ccc3c(c2)CCc2cc(-c4cnc([C@@H]5[C@H]6CC[C@H](C6)N5C(=O)[C@@H](NC(=O)OC)C(C)C)[nH]4)ccc2-3)[nH]1)C(C)C,0.0088 nM
4,COC(=O)N[C@H](C(=O)N1CCC[C@H]1c1ncc(-c2ccc3c(c2)COc2c-3ccc3cc(-c4cnc([C@@H]5CCCN5C(=O)[C@@H](NC(=O)OC)C(C)C)[nH]4)ccc23)[nH]1)C(C)C,0.0044 nM
5,COC(=O)N[C@H](C(=O)N1CCC[C@H]1c1ncc(C(=O)N2CCN(c3ccc(-c4cnc([C@@H]5CCCN5C(=O)[C@@H](NC(=O)OC)C(C)C)[nH]4)cc3)CC2)[nH]1)C(C)C,> 44.4 nM
6,COC(=O)N[C@H](C(=O)N1CCC[C@H]1c1ncc(-c2ccc3cc(-c4ccc(-c5cnc([C@@H]6CCCN6C(=O)[C@@H](Cc6cn(C)c7ccccc67)NC(=O)OC)[nH]5)cc4)ccc3c2)[nH]1)C(C)C,6.18 nM
7,COC(=O)N[C@H](C(=O)N1CCC[C@H]1c1ncc(-c2ccc(-c3ccc4c(c3)C(F)(F)c3cc(-c5cnc([C@@H]6CC7(CC7)CN6C(=O)[C@@H](NC(=O)OC)C(C)C)[nH]5)ccc3-4)cc2)[nH]1)C(C)C,0.0208 nM
8,COC(=O)N[C@H](C(=O)NC1(c2ncc(-c3ccc(-c4ccc(-c5cnc([C@@H]6CCCN6C(=O)[C@@H](NC(=O)OC)C(C)C)[nH]5)cc4)cc3)[nH]2)CCC1)C(C)C,0.0184 nM
9,CC[C@H](NC(=O)OC)C(=O)N1[C@@H]2CC[C@@H](C2)[C@H]1c1ncc(-c2ccc(-c3ccc4cc(-c5cnc([C@@H]6CC7(CC7)CN6C(=O)[C@@H](NC(=O)OC)C(C)C)[nH]5)ccc4c3)cc2)[nH]1,0.0086 nM
10,COC(=O)N[C@H](C(=O)N1CC2(C[C@H]1c1ncc(-c3ccc(-c4ccc(-c5cnc([C@@H]6CC7(CN6C(=O)[C@@H](NC(=O)OC)C(C)C)OCCO7)[nH]5)cc4)cc3)[nH]1)OCCO2)C(C)C,0.105 nM
11,COC(=O)N[C@@H](Cc1ccccc1)C(=O)N1CCC[C@H]1c1ncc(-c2ccc(-c3ccc4cc(-c5cnc([C@@H]6CCCN6C(=O)[C@@H](NC(=O)OC)C(C)C)[nH]5)ccc4c3)cc2)[nH]1,0.0181 nM
12,COC(=O)N[C@H](C(=O)N1CCC[C@H]1c1ncc(C#Cc2ccc(-c3cnc([C@@H]4CCCN4C(=O)[C@@H](NC(=O)OC)C(C)C)[nH]3)cc2)[nH]1)C(C)C,0.139 nM
13,COC(=O)N[C@H](C(=O)N1CCC[C@H]1c1ncc(-c2ccc3c(c2)CCc2cc(-c4ccc5nc([C@@H]6CCCN6C(=O)[C@@H](NC(=O)OC)C(C)C)[nH]c5c4)ccc2-3)[nH]1)C(C)C,0.0037 nM
14,COC(=O)N[C@H](C(=O)N1CCC[C@H]1c1nc2ccc(-c3cc4cc5sc(-c6ccc7nc([C@@H]8CCCN8C(=O)[C@@H](NC(=O)OC)C(C)C)[nH]c7c6)cc5cc4s3)cc2[nH]1)C(C)C,0.014 nM
15,COC(=O)N[C@H](C(=O)N1CC2(CC2)C[C@H]1c1ncc(-c2ccc3cc(-c4ccc(-c5cnc([C@@H]6[C@H]7CC[C@H](C7)N6C(=O)[C@@H](NC(=O)OC)C(C)C)[nH]5)cc4)ccc3c2)[nH]1)C(C)C,0.0067 nM
16,COC(=O)N[C@@H](C)C(=O)N1[C@@H]2CC[C@@H](C2)[C@H]1c1nc2ccc(-c3ccc4c(c3)C(F)(F)c3cc(-c5cnc([C@@H]6CC7(CC7)CN6C(=O)[C@@H](NC(=O)OC)C(C)C)[nH]5)ccc3-4)cc2[nH]1,0.0036 nM
17,COC(=O)NC(C(=O)N1CCC[C@H]1c1ncc(-c2cc3sc(C#Cc4cnc([C@@H]5CCCN5C(=O)[C@@H](NC(=O)OC)C(C)C)[nH]4)cc3s2)[nH]1)C(C)C (stereo partly shown),0.0503 nM
18,COC(=O)N[C@H](C(=O)N1CCC[C@H]1c1ncc(-c2ccc(-n3ccc(-c4cnc([C@@H]5CCCN5C(=O)[C@@H](NC(=O)OC)C(C)C)[nH]4)cc3=O)cc2)[nH]1)C(C)C,38.1 nM
19,COCCO[C@H]1C[C@@H](c2ncc(-c3ccc(-c4ccc5cc(-c6cnc([C@@H]7CC8(CC8)CN7C(=O)[C@@H](NC(=O)OC)C(C)C)[nH]6)ccc5c4)cc3)[nH]2)N(C(=O)[C@@H](NC(=O)OC)C(C)C)C1,0.0146 nM
20,COC(=O)N[C@@H](CS(C)(=O)=O)C(=O)N1[C@@H]2CC[C@@H](C2)[C@H]1c1nc2ccc(-c3ccc4c(c3)C(F)(F)c3cc(-c5cnc([C@@H]6CC7(CC7)CN6C(=O)[C@@H](NC(=O)OC)C(C)C)[nH]5)ccc3-4)cc2[nH]1,0.005 nM
21,COC(=O)N[C@H](C(=O)N1CCCC[C@H]1c1ncc(-c2ccc(C#Cc3ccc(-c4cnc([C@@H]5CCCN5C(=O)[C@@H](NC(=O)OC)C(C)C)[nH]4)cc3)cc2)[nH]1)C(C)C,0.0224 nM

row,Compound,EC50
1,COC(=O)N[C@H](C(=O)N1CC2(CC2)C[C@H]1c1ncc(-c2ccc3c(c2)C2(CC2)c2cc(-c4ccc5nc([C@@H]6[C@H]7CC[C@H](C7)N6C(=O)[C@@H](NC(=O)OC)C(C)C)[nH]c5c4)ccc2-3)[nH]1)C(C)C,0.0073 nM
2,COC(=O)N[C@H](C(=O)N1CCC[C@H]1c1ncc(-c2ccc(-c3ccc(-c4cnc([C@H]5CC6(CCC6)ON5C(=O)[C@@H](NC(=O)OC)C(C)C)[nH]4)cc3)cc2)[nH]1)C(C)C,0.11 nM
3,COC(=O)NC(C(=O)N1CCC[C@H]1c1ncc(-c2cc3sc(-c4ccc(-c5cnc([C@@H]6CCCN6C(=O)[C@@H](NC(=O)OC)C(C)C)[nH]5)cc4)cc3s2)[nH]1)C(C)C (stereo partly shown),0.0129 nM
4,COC(=O)N[C@H](C(=O)N1CCC[C@H]1c1ncc(-c2ccc(-c3ccc(-c4cnc(CN5CC(=O)N[C@@H](C(C)C)C5=O)[nH]4)cc3)cc2)[nH]1)C(C)C,0.513 nM
5,COC(=O)N[C@H](C(=O)N1CCC[C@H]1c1ncc(-c2ccc3cc(-c4ccc(-c5cnc([C@@H]6CCCN6C(=O)[C@@H](Cc6ccccc6)NC(=O)OC)[nH]5)cc4)ccc3c2)[nH]1)C(C)C,0.858 nM
6,COC(=O)N[C@H](C(=O)N1CCC[C@H]1C1=NC(=O)C(C)(c2ccc(-c3ccc(-c4cnc([C@@H]5CCCN5C(=O)[C@@H](NC(=O)OC)C(C)C)[nH]4)cc3)cc2)N1)C(C)C (stereo partly shown),> 44.4 nM
7,COC(=O)NC(C(=O)N1CCC[C@H]1c1ncc(-c2cc3sc(-c4ccc(-c5cnc([C@@H]6CCCN6C(=O)[C@H](NC(=O)OC)c6ccccc6)[nH]5)cc4)cc3s2)[nH]1)C(C)C (stereo partly shown),0.0059 nM
8,COC(=O)N[C@H](C(=O)N1[C@@H]2CC[C@@H](C2)[C@H]1c1ncc(-c2ccc(-c3ccc4cc(-c5cnc([C@@H]6CC7(CC7)CN6C(=O)[C@@H](NC(=O)OC)C(C)C)[nH]5)ccc4c3)cc2)[nH]1)c1ccccc1,0.0071 nM
9,COC(=O)N[C@H](C(=O)N1CCC[C@H]1c1ncc(-c2ccc(-c3ccc4cc(-c5cnc([C@@H]6CCCN6C(=O)[C@@H](NC(=O)OC)C(C)C)[nH]5)ccc4c3)cc2)[nH]1)c1ccsc1,0.0906 nM
10,COC(=O)N[C@H](C(=O)N1CCC[C@H]1c1ncc(-c2ccc(N3CCN(c4ccc(-c5cnc([C@@H]6CCCN6C(=O)[C@@H](NC(=O)OC)C(C)C)[nH]5)cc4)CC3)cc2)[nH]1)C(C)C,0.199 nM
11,COC(=O)N[C@H](C(=O)N1CCC[C@H]1c1ncc(C#CC#Cc2cnc([C@@H]3CCCN3C(=O)[C@@H](NC(=O)OC)C(C)C)[nH]2)[nH]1)C(C)C,1.33 nM
12,COC(=O)N[C@H](C(=O)N1CCC[C@H]1c1ncc(-c2ccc(C#Cc3ccc(-c4cnc([C@@H]5CN(S(=O)(=O)N(C)C)CCN5C(=O)[C@@H](NC(=O)OC)C(C)C)[nH]4)cc3)cc2)[nH]1)C(C)C,0.053 nM
13,COC(=O)N[C@H](C(=O)N1CCC[C@H]1c1ncc(-c2ccc(-c3ccc(-c4ccc5nc([C@@H]6CCCN6C(=O)[C@@H](NC(=O)OC)C(C)C)[nH]c5c4)s3)cc2)[nH]1)C(C)C,0.003 nM
14,COC(=O)N[C@H](C(=O)N1CCC[C@H]1c1ncc(-c2ccc(-c3ccc(-c4cnc(CN5CCC[C@@H](N)C5=O)[nH]4)cc3)cc2)[nH]1)C(C)C,7.55 nM
15,COC(=O)N[C@H](C(=O)N1CCC[C@H]1c1ncc(-c2ccc3c(c2)C(C)(C)c2cc(-c4cnc([C@@H]5CCCN5C(=O)[C@@H](NC(=O)OC)C(C)C)[nH]4)ccc2-3)[nH]1)C(C)C,0.0102 nM
16,COC(=O)N[C@H](C(=O)N1CCC[C@H]1c1ncc(-c2ccc(C#Cc3ccc(-c4cnc([C@@H]5COCCN5C(=O)[C@@H](NC(=O)OC)C(C)C)[nH]4)cc3)cc2)[nH]1)C(C)C,0.0198 nM
17,COC(=O)N[C@H](C(=O)N1CCC[C@H]1c1ncc(-c2ccc3c(c2)Nc2ccc(-c4cnc([C@@H]5CCCN5C(=O)[C@@H](NC(=O)OC)C(C)C)[nH]4)cc2S3)[nH]1)C(C)C,1.72 nM
18,COC(=O)N[C@H](C(=O)N1CCC[C@H]1c1ncc(-c2ccc(-c3ccc(-c4cnc([C@@H]5CC[C@H]6CN(C(=O)OC)CC(=O)N65)[nH]4)cc3)cc2)[nH]1)C(C)C,0.0664 nM
19,COC(=O)N[C@H](C(=O)N1CCC[C@H]1c1ncc(-c2ccc3cc(-c4ccc5cc(-c6cnc([C@@H]7CCCN7C(=O)[C@@H](NC(=O)OC)C(C)C)[nH]6)ccc5c4)ccc3c2)[nH]1)C(C)C,0.0239 nM
20,COC(=O)NC(C(=O)N1CCC[C@H]1c1ncc(-c2cc3c(C)c4sc(-c5cnc([C@@H]6CCCN6C(=O)C(NC(=O)OC)c6ccccc6)[nH]5)cc4c(C)c3s2)[nH]1)c1ccccc1 (stereo partly shown),0.0214 nM

# Same assay, conditions: Hepatitis C virus, GETYPE1B, 72 h, HCV 1b RLuc replicon, 72 hours; read-out: Activity (antiviral potency [EC50])
row,Compound,EC50
1,COC(=O)N[C@H](C(=O)N1CCC[C@H]1c1ncc(-c2ccc3cc(-c4cnc([C@@H]5CCCN5C(=O)[C@@H](NC(=O)OC)C(C)C)[nH]4)ccc3c2)[nH]1)C(C)C,0.0511 nM
